{
  "source": "paper PMC6443962",
  "about": "“Anti-nociceptive and Anti-inflammatory Activities of Asparacosin A Involve Selective Cyclooxygenase 2 and Inflammatory Cytokines Inhibition: An in-vitro, in-vivo, and in-silico Approach” (Frontiers in Immunology, 2019)",
  "key": {"[1]": {"molecular_target": "T1, COX-2 (cyclooxygenase 2, human recombinant) (Homo sapiens, UniProt P35354)", "T1 construct": "gene PTGS2", "T1 sequence (P35354 18-604)": "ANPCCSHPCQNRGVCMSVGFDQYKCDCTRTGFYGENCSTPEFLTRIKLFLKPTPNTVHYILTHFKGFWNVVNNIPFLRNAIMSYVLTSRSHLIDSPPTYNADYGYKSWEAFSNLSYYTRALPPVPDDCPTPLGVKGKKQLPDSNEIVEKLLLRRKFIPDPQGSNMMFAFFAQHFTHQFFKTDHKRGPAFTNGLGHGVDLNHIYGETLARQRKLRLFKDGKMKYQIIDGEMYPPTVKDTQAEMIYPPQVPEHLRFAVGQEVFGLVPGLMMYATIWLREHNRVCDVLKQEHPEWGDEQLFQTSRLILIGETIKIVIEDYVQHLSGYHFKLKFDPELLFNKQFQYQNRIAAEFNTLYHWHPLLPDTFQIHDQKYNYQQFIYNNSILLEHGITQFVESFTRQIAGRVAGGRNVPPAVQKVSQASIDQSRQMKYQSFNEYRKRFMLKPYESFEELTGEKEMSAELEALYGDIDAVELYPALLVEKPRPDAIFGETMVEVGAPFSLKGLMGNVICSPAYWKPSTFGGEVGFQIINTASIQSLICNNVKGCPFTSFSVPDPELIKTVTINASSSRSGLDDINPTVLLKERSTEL", "test": "colorimetric COX inhibitor screening assay (Cayman kit […])", "assay_type": "biochemical"}, "[2]": {"molecular_target": "T2, COX-1 (cyclooxygenase 1, ovine) (Ovis aries, UniProt P05979)", "T2 construct": "gene PTGS1", "T2 sequence (P05979 25-600)": "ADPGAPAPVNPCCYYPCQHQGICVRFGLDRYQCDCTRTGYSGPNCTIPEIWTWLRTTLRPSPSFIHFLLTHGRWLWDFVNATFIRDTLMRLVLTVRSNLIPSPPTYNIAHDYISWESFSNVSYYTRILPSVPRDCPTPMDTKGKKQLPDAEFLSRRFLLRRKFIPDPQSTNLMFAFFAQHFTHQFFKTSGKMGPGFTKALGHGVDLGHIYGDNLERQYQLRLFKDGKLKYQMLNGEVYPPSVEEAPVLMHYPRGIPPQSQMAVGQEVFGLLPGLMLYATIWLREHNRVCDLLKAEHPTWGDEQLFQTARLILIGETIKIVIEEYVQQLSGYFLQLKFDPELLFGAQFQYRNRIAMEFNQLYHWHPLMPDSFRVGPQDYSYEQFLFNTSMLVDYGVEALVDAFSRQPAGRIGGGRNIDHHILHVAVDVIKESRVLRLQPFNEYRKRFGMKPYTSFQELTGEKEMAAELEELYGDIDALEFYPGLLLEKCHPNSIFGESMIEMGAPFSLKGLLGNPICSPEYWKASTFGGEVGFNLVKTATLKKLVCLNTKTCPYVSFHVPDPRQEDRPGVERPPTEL", "test": "colorimetric COX inhibitor screening assay (Cayman kit […])", "assay_type": "biochemical"}},
  "data": [
    {"compound": "C[C@@H]1CC[C@@]2(OC1)O[C@H]1C[C@H]3[C@@H]4CCC5=CC(=O)CC[C@]5(C)[C@H]4C[C@@H](O)[C@]3(C)[C@@]1(O)[C@@H]2C", "note": "[Asparacosin A]", "values": [
      {"measurement": "IC50", "setting": "[1]", "result": 0.6, "unit": "µM"},
      {"measurement": "IC50", "setting": "[2]", "result": 24.2, "unit": "µM"}
    ]}
  ]
}
